Source: ChEMBL document CHEMBL1275517, “Development of caspofungin resistance following prolonged therapy for invasive candidiasis secondary to Candida glabrata infection” (2008)
Values after ≈ are worked out from the molar mass of the structure shown. Numbered stars: 1 amine (or outer) side, 2 acyl side, 3 side chain; on linkers, the order of the positions; unused ones are H or OH. Bridge positions count the residues as written; N and C are the ends. Square brackets hold non-standard residues; d marks the D form. Peptide text beside a SMILES is read from it. * marks the point of attachment. hTyr(3S-OH,4S-OH,3'-OSO3H) = N[C@H](C(=O)O)[C@H](O)[C@@H](O)c1ccc(O)c(OS(=O)(=O)O)c1; pTerphenylCO(4''-OnC5H11) = CCCCCOc1ccc(-c2ccc(-c3ccc(C(=O)*)cc3)cc2)cc1; Orn(4R-OH,5R-OH) = O=C([C@H](C[C@@H](O)[C@@H](O)N[*:3])N[*:1])[*:2]; hTyr(3S-OH,4S-OH) = N[C@H](C(=O)O)[C@H](O)[C@@H](O)c1ccc(O)cc1; Pro(3S-OH,4S-Me) = C[C@H]1CN[C@H](C(=O)O)[C@H]1O; X1 = CCCCCOc1ccc(-c2cc(-c3ccc(C(=O)*)cc3)no2)cc1; Gln(3R-OH) = NC(=O)C[C@@H](O)[C@H](N)C(=O)O; Hyp = O=C(O)[C@@H]1C[C@@H](O)CN1

Columns and labels:
Assay type in all cases: functional
[1] = tested on: Nakaseomyces glabratus; assay: Antimicrobial activity against Candida glabrata isolate 7754 after 48 hrs by broth dilution method; conditions: isolate 7754, 48 h
[2] = tested on: Nakaseomyces glabratus; assay: Antimicrobial activity against Candida glabrata isolate 7754 after 24 hrs by broth dilution method in presence of 50% of human serum; conditions: isolate 7754, 24 h
[3] = tested on: Nakaseomyces glabratus; assay: Antimicrobial activity against Candida glabrata isolate 7755 expressing FKS2 F659V mutant gene after 24 hrs by broth dilution method in presence of 50% of human serum; conditions: isolate 7755, 24 h
[4] = tested on: Nakaseomyces glabratus; assay: Antimicrobial activity against Candida glabrata isolate 7755 FKS2 F659V mutant gene after 48 hrs by broth dilution method in presence of 50% of human serum; conditions: isolate 7755, 48 h
[5] = tested on: Nakaseomyces glabratus; assay: Antimicrobial activity against Candida glabrata isolate 7754 after 48 hrs by broth dilution method in presence of 50% of human serum; conditions: isolate 7754, 48 h
[6] = tested on: Nakaseomyces glabratus; assay: Antimicrobial activity against Candida glabrata isolate 7754 after 24 hrs by broth dilution method; conditions: isolate 7754, 24 h
[7] = tested on: Nakaseomyces glabratus; assay: Antimicrobial activity against Candida glabrata isolate 7755 expressing FKS2 F659V mutant gene after 24 hrs by broth dilution method; conditions: isolate 7755, 24 h
[8] = tested on: Nakaseomyces glabratus; assay: Antimicrobial activity against Candida glabrata isolate 7755 FKS2 F659V mutant gene after 48 hrs by broth dilution method; conditions: isolate 7755, 48 h

SMILES	MIC [1]	MIC [2]	MIC [3]	MIC [4]	MIC [5]	MIC [6]	MIC [7]	MIC [8]
CCCCCOc1ccc(-c2ccc(-c3ccc(C(=O)N[C@H]4C[C@@H](O)[C@@H](O)NC(=O)[C@@H]5[C@@H](O)[C@@H](C)CN5C(=O)[C@H]([C@@H](C)O)NC(=O)[C@H]([C@H](O)[C@@H](O)c5ccc(O)cc5)NC(=O)[C@@H]5C[C@@H](O)CN5C(=O)[C@H]([C@@H](C)O)NC4=O)cc3)cc2)cc1 [ANIDULAFUNGIN] ({pTerphenylCO(4''-OnC5H11)}-[Orn(4R-OH,5R-OH)]T[Hyp][hTyr(3S-OH,4S-OH)]T[Pro(3S-OH,4S-Me)]; lactam 1-C)	0.125 µg/mL (≈ 0.11 µM)	1 µg/mL	4 µg/mL	4 µg/mL	2 µg/mL	0.125 µg/mL (≈ 0.11 µM)	0.5 µg/mL (≈ 0.438 µM)	1 µg/mL (≈ 0.877 µM)
CCCCCOc1ccc(-c2cc(-c3ccc(C(=O)N[C@H]4C[C@@H](O)[C@@H](O)NC(=O)[C@@H]5[C@@H](O)[C@@H](C)CN5C(=O)[C@H]([C@H](O)CC(N)=O)NC(=O)[C@H]([C@H](O)[C@@H](O)c5ccc(O)c(OS(=O)(=O)O)c5)NC(=O)[C@@H]5C[C@@H](O)CN5C(=O)[C@H]([C@@H](C)O)NC4=O)cc3)no2)cc1 [MICAFUNGIN] (X1-[Orn(4R-OH,5R-OH)]T[Hyp][hTyr(3S-OH,4S-OH,3'-OSO3H)][Gln(3R-OH)][Pro(3S-OH,4S-Me)]; lactam 1-C)	0.125 µg/mL (≈ 0.0984 µM)	1 µg/mL	4 µg/mL	4 µg/mL	4 µg/mL	0.125 µg/mL (≈ 0.0984 µM)	0.25 µg/mL (≈ 0.197 µM)	0.5 µg/mL (≈ 0.394 µM)
CC[C@H](C)C[C@H](C)CCCCCCCCC(=O)N[C@H]1C[C@@H](O)[C@@H](NCCN)NC(=O)[C@@H]2[C@@H](O)CCN2C(=O)[C@H]([C@H](O)CCN)NC(=O)[C@H]([C@H](O)[C@@H](O)c2ccc(O)cc2)NC(=O)[C@@H]2C[C@@H](O)CN2C(=O)[C@H]([C@@H](C)O)NC1=O [CASPOFUNGIN]	0.25 µg/mL (≈ 0.229 µM)	0.5 µg/mL	2 µg/mL	8 µg/mL	0.5 µg/mL	0.25 µg/mL (≈ 0.229 µM)	2 µg/mL (≈ 1.83 µM)	8 µg/mL (≈ 7.32 µM)
